Activity calls are given as the source filed them. The rule behind the calls is not given here.
Test system: MRP1 cells, doxorubicin viability shift, 10 uM compound
Assay: viability protection against doxorubicin, MRP-1 line – cell-based, doxorubicin EC50 shift, dose response (AID 844)
Details: for EC50: measured here: doxorubicin EC50 with compound

Cc1cc(Br)ccc1NC(=O)CNC(=O)CN1C(=O)NC2(CCCCCC2)C1=O
fold increase in Dox EC50: 1.34 (inactive) | EC50: 7.25 µM

CC1CCC(NC(=O)Cn2c3c(c(-c4ccccc4Cl)cc2=O)CCC3)CC1 (stereo not drawn)
fold increase in Dox EC50: 1.13 (inactive) | EC50: 6.11 µM

CN1/C(=C\C(=O)c2oc3ccccc3c2N)C(C)(C)c2ccccc21
fold increase in Dox EC50: 0.7 (inactive) | EC50: 3.77 µM

Cc1cccc2cc(CN(Cc3cccs3)C(=S)NCc3ccco3)c(=O)[nH]c12
fold increase in Dox EC50: 0.41 (inactive) | EC50: 2.21 µM

Cc1ccc(Cl)cc1N1CCN(C(=O)c2cc3c(=O)n(C)c4ccccc4c3n2C)CC1
fold increase in Dox EC50: 0.19 (inactive) | EC50: 1 µM

COc1ccc(NC(=O)Cn2cc(C(=O)c3ccco3)c3ccccc32)cc1
fold increase in Dox EC50: 0.88 (inactive) | EC50: 4.74 µM

COc1ccccc1NC(=O)c1sc2nc(-c3ccco3)ccc2c1N
fold increase in Dox EC50: 0.85 (inactive) | EC50: 4.61 µM

CSC1=NCCN1C(=O)Cc1ccc(Cl)cc1
fold increase in Dox EC50: 1.04 (inactive) | EC50: 5.6 µM

CC12CCC(c3nnc(SCc4ccc(Cl)cc4)nc31)C2(C)C (stereo not drawn)
fold increase in Dox EC50: 1.32 (inactive) | EC50: 7.1 µM

COc1ccc(S(=O)(=O)N(CC(=O)N2CCN(c3ccccc3OC)CC2)c2ccccc2)cc1
fold increase in Dox EC50: 0.46 (inactive) | EC50: 2.49 µM

COC(=O)C(CC(C)C)NC(=O)CSc1nc(-c2ccccc2)c(C#N)c(=O)[nH]1 (stereo not drawn)
fold increase in Dox EC50: 1.85 | EC50: 10 µM

Cc1ccc2nc(NC(=O)CCNS(=O)(=O)c3cccs3)sc2c1
fold increase in Dox EC50: 0.56 (inactive) | EC50: 3 µM

C[C@]12C=CC(=O)C=C1CC[C@H]1[C@@H]3C[C@@H](O)[C@](O)(C(=O)CO)[C@@]3(C)C[C@H](O)[C@@]12F
fold increase in Dox EC50: 1.41 (inactive) | EC50: 7.62 µM

COc1ccc(Cl)cc1NC(=O)CSc1nnc(COc2ccccc2)n1N
fold increase in Dox EC50: 0.86 (inactive) | EC50: 4.64 µM

O=[N+]([O-])c1ccc(O)c(/C=N/n2cnc3ccccc32)c1
fold increase in Dox EC50: 0.67 (inactive) | EC50: 3.61 µM

CCOC(=O)c1sc2nc3n(c(=O)c2c1C)CCCCC3
fold increase in Dox EC50: 0.52 (inactive) | EC50: 2.81 µM

Cc1ccc2nc(/N=C(\N)NC(=O)N3c4ccccc4Sc4ccccc43)nc(C)c2c1
fold increase in Dox EC50: 1.94 | EC50: 10.5 µM

COc1ccc(N2C(=O)CC(N3CCC(n4c(=O)[nH]c5ccccc54)CC3)C2=O)cc1 (stereo not drawn)
fold increase in Dox EC50: 1.04 (inactive) | EC50: 5.64 µM

CCOC(=O)c1c(-c2cccc([N+](=O)[O-])c2)csc1NC(=O)C1CCCCC1
fold increase in Dox EC50: 0.34 (inactive) | EC50: 1.84 µM

Cc1ccsc1CNn1cnnc1SCc1ccc(Cl)cc1
fold increase in Dox EC50: 0.78 (inactive) | EC50: 4.22 µM

CCOC(=O)c1ccc(N2C(=O)c3n[nH]c(C)c3C2c2ccc(OC)cc2OC)cc1 (stereo not drawn)
fold increase in Dox EC50: 0.28 (inactive) | EC50: 1.51 µM

O=C1CSC(=NC(=O)c2ccccc2)N1
fold increase in Dox EC50: 0.7 (inactive) | EC50: 3.79 µM

COc1cccc(/C=N/NC(=O)C(=O)N2CCCC2)c1O
fold increase in Dox EC50: 0.67 (inactive) | EC50: 3.6 µM

C=C(Cl)COc1ccc2c(CCCC)cc(=O)oc2c1
fold increase in Dox EC50: 0.81 (inactive) | EC50: 4.35 µM

O=C(CCN1C(=O)/C(=C/c2ccccc2)SC1=S)NNC(=O)c1cccnc1
fold increase in Dox EC50: 1.27 (inactive) | EC50: 6.88 µM

c1ccc(-n2ncc3c(NCc4cccnc4)ncnc32)cc1
fold increase in Dox EC50: 0.57 (inactive) | EC50: 3.09 µM

S=C(N/N=C/c1ccc(Cl)cc1)N1CCOCC1
fold increase in Dox EC50: 1.22 (inactive) | EC50: 6.57 µM

Cc1cc(/C=C2\SC(=S)NC2=O)c(C)n1C
fold increase in Dox EC50: 1.44 (inactive) | EC50: 7.78 µM

COc1cc(C(c2sc3ncnn3c2O)N2CCN(c3ccccc3F)CC2)cc(OC)c1OC (stereo not drawn)
fold increase in Dox EC50: 0.81 (inactive) | EC50: 4.37 µM

Cc1nc2cc(-c3ccc(Cl)cc3)nn2c(C)c1CCC(=O)NC(C)c1ccc2c(c1)OCCO2 (stereo not drawn)
fold increase in Dox EC50: 0.52 (inactive) | EC50: 2.83 µM

NC1=NC(=O)/C(=C/c2cn(CCC(=O)O)nc2-c2ccc(Cl)cc2)S1
fold increase in Dox EC50: 0.93 (inactive) | EC50: 5.01 µM

COc1ncnc2c1oc1nc(CC(C)C)c3c(c12)CCCC3
fold increase in Dox EC50: 0.66 (inactive) | EC50: 3.57 µM

COc1ccccc1NC(=O)CSC1=NCCN1
fold increase in Dox EC50: 0.68 (inactive) | EC50: 3.7 µM

O=C(Nc1nc(-c2ccccc2)cs1)c1ccc(Br)o1
fold increase in Dox EC50: 1.41 (inactive) | EC50: 7.64 µM

O=C(COc1ccc(Cl)cc1)NCc1nnc(SCC(=O)NCc2ccc3c(c2)OCO3)o1
fold increase in Dox EC50: 1.06 (inactive) | EC50: 5.74 µM

CC(/C=C1\SC(=S)N(NC(=O)c2ccc(O)cc2)C1=O)=C\c1ccccc1
fold increase in Dox EC50: 0.83 (inactive) | EC50: 4.46 µM

COc1ccccc1CNC(=O)Cn1cc2c(n1)CCCC2
fold increase in Dox EC50: 1.66 | EC50: 8.94 µM

COc1ccc2cc(-c3cc(C(=O)O)c4ccccc4n3)ccc2c1
fold increase in Dox EC50: 1.07 (inactive) | EC50: 5.75 µM

COc1ccc(C(=O)NCc2ccc(-c3nc4ccccc4s3)cc2)cc1
fold increase in Dox EC50: 1.57 | EC50: 8.47 µM

CC1=NN(C(=O)c2ccc(Cn3nc(C)c(Br)c3C)cc2)C(O)(C(F)(F)F)C1 (stereo not drawn)
fold increase in Dox EC50: 1.15 (inactive) | EC50: 6.18 µM

CC(=O)c1ccc(NC(=O)CCCN2C(=O)/C(=C/C(C)=C/c3ccccc3)SC2=S)cc1
fold increase in Dox EC50: 0.19 (inactive) | EC50: 1.01 µM

N#CC1=C(N)SC(N)=C(C#N)C1c1cccc(O)c1
fold increase in Dox EC50: 1.07 (inactive) | EC50: 5.78 µM

Cc1cc(NC(=O)CSc2nc(-c3ccccc3)c(C#N)c(=O)[nH]2)no1
fold increase in Dox EC50: 1.51 | EC50: 8.14 µM

CC(Oc1ccc(Cl)cc1Cl)C(=O)NC1CCSC1=O (stereo not drawn)
fold increase in Dox EC50: 1.98 | EC50: 10.7 µM

O=C(NC(=S)NC(=O)c1ccccc1F)c1ccccc1F
fold increase in Dox EC50: 1.44 (inactive) | EC50: 7.79 µM

N#Cc1c(-c2cccs2)nc(SCC(=O)c2cccs2)[nH]c1=O
fold increase in Dox EC50: 1.12 (inactive) | EC50: 6.05 µM

C=CCNC(=O)c1ccccc1NC(=O)c1ccc(Cl)c(S(=O)(=O)Nc2cccc(C)c2C)c1
fold increase in Dox EC50: 0.36 (inactive) | EC50: 1.96 µM

COc1ccc(/C=N/Nc2cc(OC)ncn2)cc1
fold increase in Dox EC50: 0.57 (inactive) | EC50: 3.1 µM

COc1cccc(/C=N/NC(=O)Cn2nc(C)c([N+](=O)[O-])c2C)c1O
fold increase in Dox EC50: 0.12 (inactive) | EC50: 0.673 µM

CCc1c(C)sc(NC(=O)c2cccs2)c1C(=O)OC(C)C
fold increase in Dox EC50: 0.42 (inactive) | EC50: 2.26 µM

Cc1ccc(C)c(N2CCN(C(=O)Cc3ccc(-n4c(=O)[nH]c5ccsc5c4=O)cc3)CC2)c1
fold increase in Dox EC50: 0.58 (inactive) | EC50: 3.12 µM

Cc1ccc(C(C)C)c(OCc2nc(-c3nonc3N)no2)c1
fold increase in Dox EC50: 1.51 | EC50: 8.18 µM

N/C(=N\N=C\c1ccc2c(c1)OCO2)c1nonc1N
fold increase in Dox EC50: 0.88 (inactive) | EC50: 4.73 µM

COc1ccc(-c2cc(C(=O)Nc3sc4c(c3C#N)CCCC4)c3ccccc3n2)cc1
fold increase in Dox EC50: 1.18 (inactive) | EC50: 6.37 µM
